Measurements published in ChEMBL document CHEMBL1122450, “Biological effects of modified colchicines. 2. Evaluation of catecholic colchicines, colchifolines, colchicide, and novel N-acyl- and N-aroyldeacetylcolchicines” (J Med Chem, 1983).
Activity calls are given as the source filed them.

Assays:
Mus musculus [1] = experiment: Toxicity found after a single intramuscular injection in mice; settings: in vivo, im
Mus musculus [2] = species on record: Mus musculus; experiment: Toxicity in the P388 NCI screen defined as the dose that caused an average wt. loss>3g in at least one out of set of mice or the death of one or more of mice; assay type: organism-based; settings: in vivo
P388 [3] = experiment: Potency against lymphocytic leukemia P388 screen in mice.; assay type: functional, Mus musculus
[4] = system: Tubulin (Rattus norvegicus); settings: Brain, at 25 µM
Mus musculus [5] = species on record: Mus musculus; experiment: Toxicity in the P388 NCI screen in second assay.; assay type: organism-based; settings: in vivo
P388 [6] = experiment: Potency against lymphocytic leukemia P388 screen in mice; inactive; assay type: functional, cell-based; settings: Mus musculus

Binding [4] | Compound | Toxicity (Mus musculus [1]) | Toxicity (Mus musculus [2]) | Potency (P388 [3]) | Toxicity (Mus musculus [5]) | Potency (P388 [6])
– | COc1cc2c(c(OC)c1OC)-c1ccc(OC)c(=O)cc1[C@@H](NC(=O)C(C)(C)C)CC2 | 9.3 µM/kg | – | – | – | –
– | COc1cc2c(c(OC)c1OC)-c1ccc(OC)c(=O)cc1[C@@H](NC(=O)CO)CC2 [COLCHIFOLINE] | 3.9 µM/kg | 3 µM/kg | 0.7 µM/kg | – | –
– | COc1cc2c(c(OC)c1OC)-c1ccc(OC)c(=O)cc1[C@@H](NC(=O)COc1ccccc1)CC2 | 61.3 µM/kg | 5.1 µM/kg | 1.3 µM/kg | – | –
– | CCOC(=O)N[C@H]1CCc2cc(OC)c(OC)c(OC)c2-c2ccc(OC)c(=O)cc21 | – | 11.7 µM/kg | – | 1.5 µM/kg | –
41% | COc1cc2c(c(OC)c1OC)-c1ccc(OC)c(=O)cc1[C@@H](NC(=O)/C=C(\C)C=C=C(C)/C=C/C1=C(C)CCCC1(C)C)CC2 | – | – | – | – | –
– | CCC(=O)N[C@H]1CCc2cc(OC)c(OC)c(OC)c2-c2ccc(OC)c(=O)cc21 | 8.2 µM/kg | – | – | – | –
– | COc1cc2c(c(O)c1O)-c1ccc(OC)c(=O)cc1[C@@H](NC(C)=O)CC2 | > 450 µM/kg | > 320 µM/kg | – | – | inactive
0% | COc1cc2c(c(OC)c1OC)-c1ccc(=O)c(OC)cc1[C@@H](NC(=O)CO)CC2 | – | – | – | – | –
27% | COc1c(Oc2nnnn2-c2ccccc2)cc2c(c1OC)-c1ccc(OC)c(=O)cc1[C@@H](NC(C)=O)CC2 | – | – | – | – | –
69% | COc1cc(/C=C/C(=O)N[C@H]2CCc3cc(OC)c(OC)c(OC)c3-c3ccc(OC)c(=O)cc32)cc(OC)c1O | – | – | – | – | –
10% | CCC(=O)N[C@H]1CCc2cc(OC)c(OC)c(OC)c2-c2ccc(=O)c(OC)cc21 | – | – | – | – | –
– | CCCC(=O)N[C@H]1CCc2cc(OC)c(OC)c(OC)c2-c2ccc(OC)c(=O)cc21 | 5.8 µM/kg | 5.8 µM/kg | 0.7 µM/kg | – | –
– | COc1c(O)c(O)cc2c1-c1ccc(OC)c(=O)cc1[C@@H](NC(C)=O)CC2 | > 450 µM/kg | 54 µM/kg | 20 µM/kg | – | –
– | COc1cc2c(c(OC)c1OC)-c1ccc(OC)c(=O)cc1[C@@H](NC(C)=O)CC2 [COLCHICINE] | 3 µM/kg | 2.5 µM/kg | 0.4 µM/kg | – | –
– | COc1cc(C(=O)N[C@H]2CCc3cc(OC)c(OC)c(OC)c3-c3ccc(OC)c(=O)cc32)cc(OC)c1OC | > 180 µM/kg | 72.6 µM/kg | 14 µM/kg | – | –
52% | COc1cc2c(c(OC)c1Oc1nnnn1-c1ccccc1)-c1ccc(OC)c(=O)cc1[C@@H](NC(C)=O)CC2 | – | – | – | – | –
– | COc1cc2c(c3c1OCO3)-c1ccc(OC)c(=O)cc1[C@@H](NC(C)=O)CC2 | > 167 µM/kg | 104 µM/kg | – | – | inactive
– | COc1c2c(cc3c1-c1ccc(OC)c(=O)cc1[C@@H](NC(C)=O)CC3)OCO2 | 9.7 µM/kg | 39.1 µM/kg | <10 µM/kg | – | –
– | CCOCC(=O)N[C@H]1CCc2cc(OC)c(OC)c(OC)c2-c2ccc(OC)c(=O)cc21 | 9 µM/kg | 2.8 µM/kg | 0.4 µM/kg | – | –
– | COc1cc2c(c(OC)c1OC)-c1cccc(=O)cc1[C@@H](NC(C)=O)CC2 [CHOLCHICIDE] | 168.9 µM/kg | 54.2 µM/kg | 9.2 µM/kg | – | –
– | COc1cc2c(c(OC)c1OC)-c1ccc(OC)c(=O)cc1[C@@H](NC(=O)c1ccccc1)CC2 | 60.5 µM/kg | 4.3 µM/kg | 1 µM/kg | – | –

Compound | Binding [4] | Toxicity (Mus musculus [1]) | Toxicity (Mus musculus [2]) | Potency (P388 [3]) | Toxicity (Mus musculus [5]) | Potency (P388 [6])
COc1cc2c(c(OC)c1OC)-c1ccc(OC)c(=O)cc1[C@@H](N(C)C(=O)CO)CC2 | 99% | 14.5 µM/kg | 2.9 µM/kg | 0.6 µM/kg | – | –
COc1cc2c(c(OC)c1O)-c1ccc(OC)c(=O)cc1[C@@H](NC(=O)C(F)(F)F)CC2 | 96% | 32.5 µM/kg | 23.5 µM/kg | 3.8 µM/kg | – | –
